The source of these data is patent publication US9249378B2, “Aqueous cleaning compositions having enhanced properties” (Eastman Chemical Company, priority 2013, dated 2016).

The first data set in a line: Solvent vapor pressure at 20° C.
Settings: not given
The source says:
The solvents used to formulate these compositions, along with a few select physical properties of each solvent, are summarized in Table 2, below.
`CC(O)CC(=O)OC(C)C` (stereo not shown) [i-propyl 3-hydroxybutyrate, isopropyl 3-hydroxybutyrate]: the “Solvent Vapor Pressure at 20° C.” value came out at 0.17 torr.
On the same count and under the same terms, in the case of `CC(C)COC(=O)CC(C)O` (stereo not shown) [i-butyl 3-hydroxybutyrate] it was 0.08 torr; in that of `CCC(C)OC(=O)CC(C)O` (stereo not shown) [2-butyl 3-hydroxybutyrate], 0.098 torr.
The same measure, in the same setting: in the case of `CCCCOC(=O)CC(C)O` (stereo not shown) [n-butyl 3-hydroxybutyrate] it was 0.06 torr.
The same measure, in the same setting: as for `CCOCCOCCO` [Diethylene Glycol Monoethyl Ether], the figure is 0.12 torr.
Regarding `OCc1ccccc1` [Benzyl Alcohol], the “Solvent Vapor Pressure at 20° C.” value worked out at 0.076 torr.

Still in this data set, the particulars now being: neat solvent, 20° C.
Regarding `CCCCOCCOCCO` [Diethylene Glycol Monobutyl Ether], the “Solvent Vapor Pressure at 20° C.” value was found to be 0.02 torr.
Still for that read-out and setting: in the case of dibasic ester it was 0.20 torr; in that of `C=C(C)[C@H]1CC=C(C)CC1` [d-limonene], 1.5 torr; in that of `CCCCOCCO` [Ethylene glycol monobutyl ether], 0.60 torr.
